The conditions of data set [1]: mice exposed to gaseous CO at 500 ppm. On the procedure:
To examine the effect of gaseous CO on the immune system, C57/BL6 mice (B6, Jackson Laboratory, Bar Harbor, Me.) were first exposed to 500 ppm CO in air (Praxair, Danbury, Conn.) for one hour in a sealed chamber before injection of lipopolysaccharide (LPS) (0.3 mg/kg, i.v., Sigma, St Louis, Mo.). After injection, they were exposed to another hour in the CO chamber. Blood samples were collected one hour after LPS injection (through the aortic artery) and the COHb level in whole blood was measured by a whole blood AVOXimeter 4000 (A-VOX Systems, San Antonio, Tex.). Serum samples were separated and were kept at −80° C. until analysis. Serum TNF-α was measured by sandwich ELISA (Biosource, Camarillo, Calif.).
To reveal the therapeutic potential of CO generators, methylene chloride (MC, Sigma, St. Louis, Mo.) was selected as a lead compound. Different concentrations of MC were prepared by using olive oil as a solvent. Mice were treated with MC at 5 mg/kg., 50 mg/kg, and 500 mg/kg, p.o., one hour before LPS administration.

Data set [2] relates to aortic allografts. Nature of the data set: Immunohistology of aortic grafts: activation markers and cytokines. It counts as in vivo, rat. Also noted: key: −: not present; +: low; ++: moderate; +++: frequent. On the procedure: Immunohistological analysis. Immunohistology was performed on cryostat sections as previously described in detail. Guillot et al., J. Immunol. 164:5258-68 (2000). Immunohistological analysis of infiltrating leukocytes was performed at day 30 after transplantation using the following mouse Mab: a mixture of two anti-leukocyte CD45 Mabs (OX1 AND OX30), anti-monocyte/macrophage CD68 (ED1), anti-αβ TCR (R.7.3), anti-CD4 (W3/25), anti-CD8 α chain (OX8), anti-monomorphic class II MHC antigens (OX6), anti-CD25 (OX39) (all from ECACC, Wiltshire, UK), anti-CD54 (ICAM-1) (Seikagaku America Inc., Rockville, Mass.), anti-CD86 (B7.2) (Pharmingen, Franklin Lakes, N.J.) and an irrelevant mouse Mab (3G8, anti-human CD16). VSMCs were detected using a mouse anti-α human smooth muscle actin Mab (Sigma, St. Louis, Mo.). Slides were then incubated with a biotin-conjugated anti-mouse immunoglobulin antibody (Vector Laboratories, Burlingame, Calif.), followed by HRP-conjugated streptavidin (Vector Laboratories) and VIP substrate. IFNγ expression was analyzed using a hamster Mab (Genzyme, Cambridge, Mass.). The IP10 chemiokine was detected using a goat anti-IP10 antibody (Santa Cruz, Santa Cruz, Calif.). Rabbit antibodies were used to detect iNOS (Transduction Laboratories, Lexington, Ky.), HO-1 (Stressgen) and TGFβ1 (Promega, Madison, Wis.). Biotin-conjugated anti-hamster, anti-goat and anti-rabbit antibodies were from Jackson Immunoresearch. Binding of these antibodies was detected by incubation with HRP-conjugated streptavidin and VIP substrate. Tissue sections were counterstained with hematoxylin and lithium carbonate.

Data set [3] relates to allogeneic OLTs. Nature of the data set: In vivo detection of apoptosis in OLTs. Also noted: species or system rat. The settings on record: day 10 post-transplant. On the procedure:
In vivo detection of apoptosis. A commercial in situ histochemical assay (Klenow-FragEL, Oncogene Research Products, Cambridge, Mass.) was performed to detect the DNA fragmentation characteristic of apoptosis in formalin-fixed paraffin-embedded tissue sections. In this assay, Kienow binds to exposed ends of DNA fragments generated in response to apoptotic signals and catalyzes the template-dependent addition of biotin-labeled and unlabeled deoxynucleotides. Biotinylated nucleotides are detected using a streptavidin-horse radish peroxidase (HRP) conjugate. Diaminobenzidine reacts with the labeled sample to generate an insoluble colored substrate at the site of DNA fragmentation. Counterstaining with methyl green aids in the morphological evaluation and characterization of normal and apoptotic cells. The results were scored semi-quantitatively by averaging the number of apoptotic cells per microscopic field at 200× magnification. Six fields were evaluated per tissue sample. All data are expressed as mean±SD.

The subject of data set [4] is C57BL/6 ApoE (−/−) mice. Nature of the data set: Carotid wire injury in atherogenic ApoE-/- mouse, neointimal formation. It counts as in vivo. To be noted: day -1 to day 28. On the procedure: The effects of CO generated though metabolic degradation of methylene chloride are investigated in an atherosclerotic mouse carotid intimal denudation model. Female C57BL/6 ApoE (−/−) mice (10-12 weeks old, n=12/group) are fed Western diet for 1 week prior to injury and 4 weeks after injury. On day 0 mice are anesthesized with ip injection of ketamine (80 mg/kg) & xylazine (5 mg/kg). The left carotid artery is isolated and two ligatures (6-O silk) are placed around the external carotid artery, ligatures are also placed around the common and internal carotid arteries. After the distal external carotid ligatures are tied, the carotid is incised with Vannas scissors proximal to the ligature. A curved flexible wire (0.35 mm/0.014 in diameter) is introduced into the external carotid and passed three times along the wall of the common carotid while being rotated. Upon removal of the wire the proximal carotid ligature is tied and the skin is reopposed with 6-O silk.
Methylene chloride (25, 100, 400 mg/kg/day) is administered intraperitoneally or orally starting on day-1 until day 28. A control group is treated with vehicle. On day 28 animals are sacrificed and after incision, the right and left common, external, and internal carotids are ligated. After sternotomy, common carotids are dissected further to the aortic arch. A 27-gauge needle is placed in the left ventricle and a systemic perfusion with phosphate buffered paraformaldehyde (100 mM, 4% wt/vol, pH 7.3) is performed at 100 mmHg via the left ventricular cannula. Subsequently, the common, internal and external carotid arteries are transected and removed. Specimens are dehydrated in ethanol and xylene, and embedded in paraffin. Tissue sections are stained and VSMC proliferation is assessed microscopically by histomorphometry. Methylene chloride therapy at 400, 100, and 25 mg/kg/day inhibits neointimal formation by 90%, 75% and 30% respectively.

Data on 2 compounds can be found in patent US20040143025A1, “Carbon monoxide generating compunds for treatment of vascular, inflammatory and immune disorders” (priority 2002, published 2004).

Each structure is given as a SMILES string.

For the compound `[C-]#[O+]` [CO, carbon monoxide], the O2Hb levels in data set [1] is 79.18±1.569%. For the same compound, in data set [2] (adventitia), the “CD54 (ICAM-1)” value was “+++”, the “CD86 (B7.2)” value was “+”, the INOS result is “+++” and the IP10 result is given as “+”. In data set [2] (adventitia), the MHC-II entry is given as “++” and the TGFβ result was “++”. Moreover, in data set [2] (intima), the “CD54 (ICAM-1)” value is recorded as “++”, the “CD86 (B7.2)” value is listed as “+”, the INOS result is “++” and the IP10 entry is “+”. Further, in data set [2] (intima), the MHC-II entry is given as “++” and the TGFβ entry is recorded as “+”. In addition, in data set [2] (media), the “CD54 (ICAM-1)” value is given as “−”, the “CD86 (B7.2)” value was “−”, the INOS entry is recorded as “++” and the IP10 result is given as “+”. Besides, in data set [2] (media), the MHC-II entry is “−” and the TGFβ entry is listed as “+”.

Take `ClCCl` [methylene chloride]: the “TUNEL+ cells/field in allogeneic OLTs” value in data set [3] was 4.5±2.3. The results for the “inhibition of neointimal formation” value in data set [4] (25 mg/kg/day), in data set [4] (100 mg/kg/day) and in data set [4] (400 mg/kg/day) were 30%, 75% and 90%, respectively.
